Earlier results in patent US9492541B2, “Phenylepherine containing dosage form” (SOVEREIGN PHARMACEUTICALS, LLC, priority 2004, dated 2016).

Conditions: oral

period over which a single dose provides a therapeutically effective plasma concentration: 2.5 ± 0.7 h
Structure (SMILES): CNC[C@H](O)c1cccc(O)c1 [phenylepherine]
